Source: patent US8735406B2, “8-oxodihydropurine derivative” (Dainippon Sumitomo Pharma Co., Ltd., priority 2009, dated 2014)
pIC50: −log10 of the molar value. Read-outs that look alike come from different tables or passages of the source.

Target: T1, FAAH (Rattus norvegicus, UniProt P97612)
T1 construct: Preparation of Rat Brain Membranes Preparations (FAAH Enzyme Solution); from tissue; host or cells: rat cerebrum (brain membrane preparation)
T1 sequence (P97612 1-579): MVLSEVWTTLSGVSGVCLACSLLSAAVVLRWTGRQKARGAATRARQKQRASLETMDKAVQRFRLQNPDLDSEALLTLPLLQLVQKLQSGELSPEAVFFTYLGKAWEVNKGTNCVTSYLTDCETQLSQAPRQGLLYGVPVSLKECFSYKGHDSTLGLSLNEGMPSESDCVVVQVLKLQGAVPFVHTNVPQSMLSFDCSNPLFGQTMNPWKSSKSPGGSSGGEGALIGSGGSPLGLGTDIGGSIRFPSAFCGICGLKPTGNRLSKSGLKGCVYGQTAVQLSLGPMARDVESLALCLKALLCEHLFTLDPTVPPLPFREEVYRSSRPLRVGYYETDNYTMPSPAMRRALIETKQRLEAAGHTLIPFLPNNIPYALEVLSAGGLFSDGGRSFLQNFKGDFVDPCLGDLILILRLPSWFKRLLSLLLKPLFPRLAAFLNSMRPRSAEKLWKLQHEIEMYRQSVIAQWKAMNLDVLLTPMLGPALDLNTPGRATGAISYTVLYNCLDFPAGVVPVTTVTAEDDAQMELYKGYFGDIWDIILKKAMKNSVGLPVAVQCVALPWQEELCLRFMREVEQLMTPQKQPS
Test: Determination of FAAH inhibitory activity in rat (rat brain membrane preparations, [3H]-anandamide hydrolysis)
Type: biochemical
Conditions: for inhibition at 0.1 µM: read-out: FAAH Inhibition, Inhibition Rate at 100 nM; for pIC50: test substance 0.1 nM to 1 μM, read-out: FAAH Inhibition IC50
Method: Determination of FAAH Inhibitory Activity in Rat
The preparation of rat brain membranes preparations and the determination of FAAH inhibitory activity were carried out according to the Jonsson et al. method [Br. J. Pharmacol., 133, 1263 (2001)].
(1) Preparation of Rat Brain Membranes Preparations (FAAH Enzyme Solution)
The cerebrum was extracted from rats and was freeze-stored at −80° C. To the frozen cerebrum was added 4° C. enzyme homogenization buffer (20 mM HEPES-buffer pH 7.0, 1 mM MgCl2) and the mixture was homogenized using a homogenizer in ice and the homogenates were centrifuged (36,000×g for 20 minutes). After repeating operations of homogenization and centrifugation, the tissue pellets were re-suspended with 4° C. enzyme homogenization buffer. The re-suspensions were incubated at 37° C. for 15 minutes and were centrifuged (36,000×g for 20 minutes), and the resulting tissue membranes were then re-suspended with enzyme solution preparation buffer (50 mM Tris-HCl buffer pH 7.4, 1 mM EDTA, 3 mM MgCl2). The protein concentration in the resulting membrane preparations were determined according to a colorimetry method (BCA Protein Assay: Pierce Inc.) and the preparations were freeze-stored at −80° C. until used for assay.
(2) Screening of Substances for Inhibiting FAAH Activity
To the above membrane preparations (final concentration 100 μg/mL) were added a solution of test substances in DMSO (final concentration in DMSO 1%) and an assay buffer (for final preparation; 22 mM Tris-HCl (pH 7.6), 1.4 mM EDTA, 1.5% BSA, 0.6 mM MgCl2) and the resulting mixtures were preincubated at 37° C. for 10 minutes. Thereto was added a substrate solution (for final preparation; 2 nM [^3H]-Anandamide (American Radiolabeled Chemicals Inc.)+2 μM Anandamide (Sigma-Aldrich Co.)) (final assay volume of 200 μL) and the resulting mixtures were incubated at 37° C. for 10 minutes. Here in control experiment, DMSO was added instead of the solution of test substance in DMSO. Also in blank experiment, DMSO was added instead of the solution of test substance in DMSO and an enzyme solution preparation buffer was also added instead of the membrane preparations. After the incubation, thereto was added a 400 μL ice-cooled solution of chloroform and methanol (1:1 ratio by volume) and the resulting mixtures were stirred. An ethanolamine (ethanolamine-1-[^3H]) as a decomposed product was separated into an upper layer (water/methanol layer) by centrifugation (1,000×g for 10 minutes). The upper layer 200 μL was transferred into 96 well Deepwell Luma Plate-96 (PerkinElmer Inc.) and the radioactivity was measured by microplate scintillation counter (TopCount NXT™: […].). The substances showing a lower measured value compared to those of control were selected as the compound having a FAAH inhibitory activity.
(3) Determination of IC50 Value
The test substances were prepared such that the final concentration of the compounds is within the range of 0.1 nM to 1 μM and were then examined on the effect on FAAH activity according to the above-mentioned protocol.

[1] = rat brain membrane preparations, 100 nM test substance
[2] = rat brain membrane preparations

Structure (SMILES) | inhibition at 0.1 µM [1] | pIC50 [2] | inhibition at 1 µM (rat brain membrane preparations, 1000 nM test substance (stated in the cell), read-out: FAAH Inhibition, Inhibition Rate (1000 nM)) | inhibition at 0.1 µM
Cn1c(=O)n(C(=O)N2CCCC2)c2cnc(/C=C/c3ccccc3)nc21 [Example 1, 9-methyl-2-[(E)-2-phenylethenyl]-7-(pyrrolidin-1-ylcarbonyl)-7,9-dihydro-8H-purine-8-one] | 100% | 8.22 | – | –
CCN(C)C(=O)n1c(=O)n(C)c2nc(-c3ccccc3)ncc21 [Example 2, N-ethyl-N,9-dimethyl-8-oxo-2-phenyl-8,9-dihydro-7H-purine-7-carboxamide] | 99% | 8.00 | – | –
COc1ccc(/C=C/c2ncc3c(n2)n(C)c(=O)n3C(=O)N2CCCC2)cc1 [Example 4, 2-[(E)-2-(4-Methoxyphenyl)ethenyl]-9-methyl-7-(pyrrolidin-1-ylcarbonyl)-7,9-dihydro-8H-purine-8-one] | 99% | 8.00 | – | –
Cn1c(=O)n(C(=O)N2CCCC2)c2cnc(/C=C/c3ccc(F)cc3)nc21 [Example 5, 2-[(E)-2-(4-Fluorophenyl)ethenyl]-9-methyl-7-(pyrrolidin-1-ylcarbonyl)-7,9-dihydro-8H-purine-8-one] | 98% | 7.82 | – | –
Cn1c(=O)n(C(=O)N2CCCC2)c2cnc(/C=C/c3ccc(Cl)cc3)nc21 [Example 8, 2-[(E)-2-(4-Chlorophenyl)ethenyl]-9-methyl-7-(pyrrolidin-1-ylcarbonyl)-7,9-dihydro-8H-purine-8-one] | 87% | 7.24 | – | –
Cc1ccc(/C=C/c2ncc3c(n2)n(C)c(=O)n3C(=O)N2CCCC2)cc1 [Example 9, 9-Methyl-2-[(E)-2-(4-methylphenyl)ethenyl]-7-(pyrrolidin-1-ylcarbonyl)-7,9-dihydro-8H-purine-8-one] | 92% | 7.33 | – | –
Cn1c(=O)n(C(=O)N2CCCC2)c2cnc(CCc3ccccc3)nc21 [Example 11, 9-Methyl-2-(2-phenylethyl)-7-(pyrrolidin-1-ylcarbonyl)-7,9-dihydro-8H-purine-8-one] | 79% | 7.18 | – | –
COc1ccc(CCc2ncc3c(n2)n(C)c(=O)n3C(=O)N2CCCC2)cc1 [Example 12, 2-[2-(4-Methoxyphenyl)ethyl]-9-methyl-7-(pyrrolidin-1-ylcarbonyl)-7,9-dihydro-8H-purine-8-one] | 93% | 7.34 | – | –
Cn1c(=O)n(C(=O)N2CCCC2)c2cnc(-c3ccccc3)nc21 [Example 16, 9-Methyl-2-phenyl-7-(pyrrolidin-1-ylcarbonyl)-7,9-dihydro-8H-purine-8-one] | 100% | 8.15 | – | –
Cn1c(=O)n(C(=O)N2CCCC2)c2cnc(-c3cccc(Cl)c3)nc21 [Example 17] | 101% | 8.10 | – | –
Cn1c(=O)n(C(=O)N2CCCC2)c2cnc(-c3ccc(Cl)cc3)nc21 [Example 18] | 99% | 8.15 | – | –
Cn1c(=O)n(C(=O)N2CCCC2)c2cnc(Cc3cccc(Cl)c3)nc21 [Example 19, 2-(3-Chlorobenzyl)-9-methyl-7-(pyrrolidin-1-ylcarbonyl)-7,9-dihydro-8H-purine-8-one] | 99% | 8.05 | – | –
Cn1c(=O)n(C(=O)N2CCCC2)c2cnc(Cc3ccc(Cl)cc3)nc21 [Example 20, 2-(4-Chlorobenzyl)-9-methyl-7-(pyrrolidin-1-ylcarbonyl)-7,9-dihydro-8H-purine-8-one] | 95% | 7.40 | – | –
Cn1c(=O)n(C(=O)N2CCCC2)c2cnc(CCCc3ccccc3)nc21 [Example 21] | 57% | 7.08 | – | –
CN(C)C(=O)n1c(=O)n(C)c2nc(-c3ccccc3)ncc21 [Example 22] | 102% | 7.92 | – | –
Cn1c(=O)n(C(=O)N2CCC2)c2cnc(-c3ccccc3)nc21 [Example 23, 7-(Azetidin-1-ylcarbonyl)-9-methyl-2-phenyl-7,9-dihydro-8H-purine-8-one] | 102% | 8.30 | – | –
Cn1c(=O)n(C(=O)N2CCCCC2)c2cnc(-c3ccccc3)nc21 [Example 24, 9-Methyl-2-phenyl-7-(piperidin-1-ylcarbonyl)-7,9-dihydro-8H-purine-8-one] | 97% | 7.54 | – | –
CN1CCN(C(=O)n2c(=O)n(C)c3nc(-c4ccccc4)ncc32)CC1 [Example 26] | 38% | < 7.00 | – | –
CN(C(=O)n1c(=O)n(C)c2nc(-c3ccccc3)ncc21)c1ccccc1 [Example 27] | 76% | 7.20 | – | –
COC[C@H]1CCCN1C(=O)n1c(=O)n(C)c2nc(-c3ccccc3)ncc21 [Example 29] | 67% | 7.12 | – | –
CN(CCCc1ccccc1)C(=O)n1c(=O)n(C)c2nc(-c3ccccc3)ncc21 [Example 35, N,9-Dimethyl-8-oxo-2-phenyl-N-(3-phenylpropyl)-8,9-dihydro-7H-purine-7-carboxamide] | – | 8.10 | – | 100%

More lines, main results first:

inhibition at 0.1 µM [1] | pIC50 [2] | inhibition at 1 µM (rat brain membrane preparations, 1000 nM test substance (stated in the cell), read-out: FAAH Inhibition, Inhibition Rate (1000 nM)) | Structure (SMILES) | inhibition at 0.1 µM
91% | 7.33 | – | Cn1c(=O)n(C(=O)N2CCC(c3ccccc3)CC2)c2cnc(-c3ccccc3)nc21 [Example 33, 9-Methyl-2-phenyl-7-[(4-phenylpiperidin-1-yl)carbonyl]-7,9-dihydro-8H-purine-8-one] | –
101% | 7.64 | – | CN(Cc1ccccc1)C(=O)n1c(=O)n(C)c2nc(-c3ccccc3)ncc21 [Example 34, N-Benzyl-N,9-dimethyl-8-oxo-2-phenyl-8,9-dihydro-7H-purine-7-carboxamide] | –
98% | 8.15 | – | CN(CCCCc1ccccc1)C(=O)n1c(=O)n(C)c2nc(-c3ccccc3)ncc21 [Example 36, N,9-Dimethyl-8-oxo-2-phenyl-N-(4-phenylbutyl)-8,9-dihydro-7H-purine-7-carboxamide] | –
91% | 7.34 | – | CCOC(=O)CN(C)C(=O)n1c(=O)n(C)c2nc(-c3ccccc3)ncc21 [Example 37, Ethyl N-methyl-N-[(9-methyl-8-oxo-2-phenyl-8,9-dihydro-7H-purin-7-yl)carbonyl]glycinate] | –
73% | 7.12 | – | COC(=O)CN(C)C(=O)n1c(=O)n(C)c2nc(-c3ccccc3)ncc21 [Example 38] | –
98% | 7.37 | – | COCCN(C)C(=O)n1c(=O)n(C)c2nc(-c3ccccc3)ncc21 [Example 39, N-(2-Methoxyethyl)-N,9-dimethyl-8-oxo-2-phenyl-8,9-dihydro-7H-purine-7-carboxamide] | –
20% | < 7.00 | – | CCN(CC)C(=O)n1c(=O)n(C)c2nc(-c3ccccc3)ncc21 [Example 40] | –
33% | < 7.00 | – | Cn1c(=O)n(C(=O)N2CCCCCC2)c2cnc(-c3ccccc3)nc21 [Example 41] | –
20% | < 7.00 | – | CN(C(=O)n1c(=O)n(C)c2nc(-c3ccccc3)ncc21)C1CCCCC1 [Example 43] | –
– | < 7.00 | 30% | Cn1c(=O)n(C(=O)N2CCCC2Cc2ccccc2)c2cnc(-c3ccccc3)nc21 (centres unmarked) [Example 44] | –
